Laboratory results: patent US10188634B2, “3-(3H-imidazo[4,5-C]pyridin-2-yl)-1 H-pyrazolo[4,3-B]pyridines and therapeutic uses thereof” (Samumed, LLC, priority 2015, dated 2019)

Columns and labels:
[1] = system: LL29 cells (primary human fibroblasts derived from IPF patients) treated with TGF-β1, α-smooth muscle actin; test: Inhibition of the fibrotic process: αSMA staining in TGF-β1 treated primary human fibroblasts from IPF patients (LL29 cells); format: cell-based; conditions: Fibroblast, 96 h; for EC50: LL29 cells treated with TGF-β1 (20 ng/mL), 4 days; for inhibition at 10 µM: LL29 cells treated with TGF-β1, 4 days, read-out: percent inhibition in brackets (given for EC50 >10 μM)
Source text: Representative compounds were screened using primary human fibroblasts (derived from IPF patients) treated with TGF-β1 to determine their ability to inhibit the fibrotic process.
Human Fibroblast Cell Culture: Primary human fibroblasts derived from IPF patients (LL29 cells) [^1Xiaoqiu Liu, et.al., “Fibrotic Lung Fibroblasts Show Blunted Inhibition by cAMP Due to Deficient cAMP Response Element-Binding Protein Phosphorylation”, Journal of Pharmacology and Experimental Therapeutics (2005), 315(2), 678-687; ^2Watts, K. L., et.al., “RhoA signaling modulates cyclin D1 expression in human lung fibroblasts; implications for idiopathic pulmonary fibrosis”, Respiratory Research (2006), 7(1), 88] were obtained from American Type Culture Collection (ATCC) and expanded in F12 medium supplemented with 15% Fetal Bovine Serum and Penicillin/Streptomycin.
Compound Screening: Each compound was dissolved in DMSO as a 10 mM stock and used to prepare compound source plates. […] LL29 cells are plated at 1,500 cells/well in 80 μL/well F12 medium supplemented with 1% Fetal Bovine Serum. One hour after addition of the cells, TGF-β1 (Peprotech; 20 ng/mL) was added to the plates to induce fibrosis (ref. 1 and 2 above). Wells treated with TGF-β1 and containing DMSO were used as controls. Cells were incubated at 37° C. and 5% CO2 for 4 days. Following incubation for 4 days, SYTOX green nucleic acid stain (Life Technologies [Thermo Fisher Scientific]) was added to the wells at a final concentration of 1 μM and incubated at room temperature for 30 min. Cells were then fixed using 4% formaldehyde (Electron Microscopy Sciences), washed 3 times with PBS followed by blocking and permeabilization using 3% Bovine Serum Albumin (BSA; Sigma) and 0.3% Triton X-100 (Sigma) in PBS. Cells were then stained with antibody specific to α-smooth muscle actin (αSMA; Abcam) (ref. 1 and 2 above) in 3% Bovine Serum Albumin (BSA; Sigma) and 0.3% Triton X-100 (Sigma) in PBS, and incubated overnight at 4° C. Cells were then washed 3 times with PBS, followed by incubation with Alexa Flor-647 conjugated secondary antibody (Life Technologies [Thermo Fisher Scientific]) and DAPI at room temperature for 1 hour. Cells were then washed 3 times with PBS and plates were sealed for imaging. αSMA staining was imaged by excitation at 630 nm and emission at 665 nm and quantified using the Compartmental Analysis program on the CellInsight CX5 (Thermo Scientific). Dead or apoptotic cells were excluded from analysis based on positive SYTOX green staining. % of total cells positive for αSMA were counted in each well and normalized to the average of 11 wells treated with TGF-β1 on the same plate using Dotmatics' Studies Software. The normalized averages (fold change over untreated) of 3 replicate wells for each compound concentration were used to create dose-responses curves and EC50 values were calculated using non-linear regression curve fit in the Dotmatics' Studies Software. For EC50 of >10 μM, the percent inhibition at 10 μM is provided.

SW480 colon cancer cells = test: Cell viability assay (CellTiter-Blue) in SW480 colon cancer cells; format: cell-based; conditions: Homo sapiens, 96 h; for inhibition at 10 µM: four days, CellTiter-Blue, read-out: percent inhibition at 10 μM (given for EC50 of >10 μM); for EC50: four days incubation, CellTiter-Blue cell viability
Protocol: Representative compounds were screened using the following assay procedure to assess the effect on cell viability as described below.
Each compound was dissolved in DMSO as a 10 mM stock and used to prepare compound source plates. Serial dilution (1:3, 8-point dose-response curves from 10 μM to 0.004 μM) and compound transfer was performed using the ECHO 550 (Labcyte, Sunnyvale, Calif.) into 96-well clear bottom, black-walled plates (Corning-Costar).
Approximately 2×10^3 SW480 colon cancer cells were seeded into each well and allowed to incubate in the presence or absence of compound for four days at 37° C./5% CO2. Eight replicates of DMSO-treated cells served as controls and cells treated with compound were performed in duplicate.
After incubation, 20 μL of CellTiter-Blue (Promega) was added to each well allowed to incubate for approximately 3 hours. This reagent was a buffered solution which contains resazurin, metabolically active cells were able to reduce rezarurin (blue) into resorufin (pink) which was highly fluorescent. This measured fluorescence was used as a readout for cell viability.
After incubation, the plates were read at Ex 560 nm Em 590 nm (Cytation 3, BioTek). Dose-response curves were generated and EC50 concentration values were calculated using non-linear regression curve fit in the GraphPad Prism (San Diego, Calif.) or Dotmatics' Studies Software (Bishops Stortford, UK). For EC50 of >10 μM, the percent inhibition at 10 μM is provided.

SMILES | EC50 (SW480 colon cancer cells) [µM] | EC50 [1] [µM] | inhibition at 10 µM [1] [%] | inhibition at 10 µM (SW480 colon cancer cells) [%]
c1cncc(-c2ccc3[nH]nc(-c4nc5c(-c6cccnc6)cncc5[nH]4)c3n2)c1 [Compound 88, 5-(Pyridin-3-yl)-3-(7-(pyridin-3-yl)-3H-imidazo[4,5-c]pyridin-2-yl)-1H-pyrazolo[4,3-b]pyridine] | > 10 | 4.96 |  | 7.1
CC(C)C(=O)Nc1cncc(-c2ccc3[nH]nc(-c4nc5c(-c6cccnc6)cncc5[nH]4)c3n2)c1 [Compound 93, N-(5-(3-(7-(Pyridin-3-yl)-3H-imidazo[4,5-c]pyridin-2-yl)-1H-pyrazolo[4,3-b]pyridin-5-yl)pyridin-3-yl)isobutyramide] | > 10 | > 10 | 12.2 | 6.3
c1ccc(CNCc2cncc(-c3ccc4[nH]nc(-c5nc6c(-c7cccnc7)cncc6[nH]5)c4n3)c2)cc1 [Compound 108, N-Benzyl-1-(5-(3-(7-(pyridin-3-yl)-3H-imidazo[4,5-c]pyridin-2-yl)-1H-pyrazolo[4,3-b]pyridin-5-yl)pyridin-3-yl)methanamine] | > 10 | > 10 | 0 | 0
Cc1ccncc1-c1ccc2[nH]nc(-c3nc4c(-c5ccncc5)cncc4[nH]3)c2n1 [Compound 117, 5-(4-Methylpyridin-3-yl)-3-(7-(pyridin-4-yl)-3H-imidazo[4,5-c]pyridin-2-yl)-1H-pyrazolo[4,3-b]pyridine] | > 10 | > 10 | 0 | 2.8
CCCC(=O)Nc1cncc(-c2ccc3[nH]nc(-c4nc5c(-c6ccncc6)cncc5[nH]4)c3n2)c1 [Compound 129, N-(5-(3-(7-(Pyridin-4-yl)-3H-imidazo[4,5-c]pyridin-2-yl)-1H-pyrazolo[4,3-b]pyridin-5-yl)pyridin-3-yl)butyramide] | > 10 | > 10 | 0 | 2.8
c1cc(-c2ccc3[nH]nc(-c4nc5c(-c6ccncc6)cncc5[nH]4)c3n2)ccn1 [Compound 130, 5-(pyridin-4-yl)-3-(7-(pyridin-4-yl)-3H-imidazo[4,5-c]pyridin-2-yl)-1H-pyrazolo[4,3-b]pyridine] | > 10 | > 10 | 11 | 0
O=C(Nc1cncc(-c2ccc3[nH]nc(-c4nc5c(-c6ccncc6)cncc5[nH]4)c3n2)c1)C1CCCCC1 [Compound 135, N-(5-(3-(7-(pyridin-4-yl)-3H-imidazo[4,5-c]pyridin-2-yl)-1H-pyrazolo[4,3-b]pyridin-5-yl)pyridin-3-yl)cyclohexanecarboxamide] | > 10 | > 10 | 0 | 1.4
CCNCc1cncc(-c2ccc3[nH]nc(-c4nc5c(-c6ccccn6)cncc5[nH]4)c3n2)c1 [Compound 146, N-((5-(3-(7-(Pyridin-2-yl)-3H-imidazo[4,5-c]pyridin-2-yl)-1H-pyrazolo[4,3-b]pyridin-5-yl)pyridin-3-yl)methyl)ethanamine] | > 10 | 1.86 |  | 26.9
O=C(Nc1cncc(-c2ccc3[nH]nc(-c4nc5c(-c6ccccn6)cncc5[nH]4)c3n2)c1)c1ccccc1 [Compound 151, N-(5-(3-(7-(Pyridin-2-yl)-3H-imidazo[4,5-c]pyridin-2-yl)-1H-pyrazolo[4,3-b]pyridin-5-yl)pyridin-3-yl)benzamide] | > 10 | > 10 | 38.8 | 16.9

Second part, led by results:

EC50 (SW480 colon cancer cells) [µM] | SMILES | EC50 [1] [µM] | inhibition at 10 µM [1] [%] | inhibition at 10 µM (SW480 colon cancer cells) [%]
> 10 | CCC(=O)Nc1cncc(-c2ccc3[nH]nc(-c4nc5c(-c6cccc(F)c6)cncc5[nH]4)c3n2)c1 [Compound 1, N-(5-(3-(7-(3-Fluorophenyl)-3H-imidazo[4,5-c]pyridin-2-yl)-1H-pyrazolo[4,3-b]pyridin-5-yl)pyridin-3-yl)propionamide] | > 10 | 0 | 0
> 10 | CC(C)CC(=O)Nc1cncc(-c2ccc3[nH]nc(-c4nc5c(-c6cccc(F)c6)cncc5[nH]4)c3n2)c1 [Compound 2, N-(5-(3-(7-(3-Fluorophenyl)-3H-imidazo[4,5-c]pyridin-2-yl)-1H-pyrazolo[4,3-b]pyridin-5-yl)pyridin-3-yl)-3-methylbutanamide] | 4.09 |  | 0
> 10 | Fc1cccc(-c2cncc3[nH]c(-c4n[nH]c5ccc(-c6ccncc6)nc45)nc23)c1 [Compound 18, 3-(7-(3-Fluorophenyl)-3H-imidazo[4,5-c]pyridin-2-yl)-5-(pyridin-4-yl)-1H-pyrazolo[4,3-b]pyridine] | > 10 | 0 | 6.5
8.68 | O=C(Nc1cncc(-c2ccc3[nH]nc(-c4nc5c(-c6ccc(F)cc6)cncc5[nH]4)c3n2)c1)C1CCC1 [Compound 49, N-(5-(3-(7-(4-Fluorophenyl)-3H-imidazo[4,5-c]pyridin-2-yl)-1H-pyrazolo[4,3-b]pyridin-5-yl)pyridin-3-yl)cyclobutanecarboxamide] | 3.23 |  | 
> 10 | Fc1ccc(-c2cncc3[nH]c(-c4n[nH]c5ccc(-c6cncnc6)nc45)nc23)cc1 [Compound 55, 3-(7-(4-Fluorophenyl)-3H-imidazo[4,5-c]pyridin-2-yl)-5-(pyrimidin-5-yl)-1H-pyrazolo[4,3-b]pyridine] | > 10 | 21.4 | 0
> 10 | Nc1cncc(-c2ccc3[nH]nc(-c4nc5c(-c6ccccc6F)cncc5[nH]4)c3n2)c1 [Compound 59, 5-(3-(7-(2-Fluorophenyl)-3H-imidazo[4,5-c]pyridin-2-yl)-1H-pyrazolo[4,3-b]pyridin-5-yl)pyridin-3-amine] | 3.4 |  | 0
> 10 | CC(C)C(=O)Nc1cncc(-c2ccc3[nH]nc(-c4nc5c(-c6ccccc6F)cncc5[nH]4)c3n2)c1 [Compound 65, N-(5-(3-(7-(2-fluorophenyl)-3H-imidazo[4,5-c]pyridin-2-yl)-1H-pyrazolo[4,3-b]pyridin-5-yl)pyridin-3-yl)isobutyramide] | > 10 | 1.9 | 0
> 10 | CC(C)(C)CC(=O)Nc1cncc(-c2ccc3[nH]nc(-c4nc5c(-c6ccccc6F)cncc5[nH]4)c3n2)c1 [Compound 72, N-(5-(3-(7-(2-fluorophenyl)-3H-imidazo[4,5-c]pyridin-2-yl)-1H-pyrazolo[4,3-b]pyridin-5-yl)pyridin-3-yl)-3,3-dimethylbutanamide] | > 10 | 0 | 9.8
8.9 | O=C(Nc1cncc(-c2ccc3[nH]nc(-c4nc5c(-c6ccccc6F)cncc5[nH]4)c3n2)c1)C1CCCC1 [Compound 78, N-(5-(3-(7-(2-Fluorophenyl)-3H-imidazo[4,5-c]pyridin-2-yl)-1H-pyrazolo[4,3-b]pyridin-5-yl)pyridin-3-yl)cyclopentanecarboxamide] | 9.08 |  | 
